Laboratory results: patent US20180071354A1, “SELECTIVE BREEDING METHOD OF ANTITUMOR/ANTICANCER CAMELLIA SINENSIS STRAIN, AND TEA PRODUCT OF SUCH STRAIN” (FUJIAN AGRICULTURE AND FORESTRY UNIVERSITY, priority 2015, published 2018)
Converted amounts (≈) assume the structure as drawn.

Tests used:
Assay type in all cases: cell-based
[1] = tested on: human ovarian cancer cell line SK-OV-3; assay: In vitro antitumor/anticancer testing (CCK-8), SK-OV-3; conditions: 48 h
Protocol: (§1) Each of Tea Product 1 and Conventional Tea Product obtained in section A of this example was used to prepare test tea samples according to the method described below. A proper amount of the respective tea product was added into sterile water to prepare a stock solution with a concentration of 100 mg/mL, followed by using a membrane filter with a pore size of 0.22 μm to conduct vacuum filtration and sterilization. The resulting stock solution was diluted with a respective complete medium shown in Table 3 below to form test tea samples with different concentrations. In other words, the thus obtained test tea samples to be used for treating a respective cancer/tumor cell line shown in Table 3 were prepared using the same complete medium as that for the respective cancer/tumor cell line. […] Specifically, each of the aforesaid commercially available agents was subjected to the method described below to prepare comparative test samples. A proper amount of a respective commercially available agent was dissolved in phosphate-buffered saline (PBS) to prepare a stock solution with a concentration of 5 mg/mL, followed by using a membrane filter with a pore size of 0.22 μm to conduct vacuum filtration and sterilization. The resulting stock solution was diluted with a respective complete medium shown in Table 3 below to form comparative test samples with different concentrations. To be specific, the comparative test samples prepared from the respective commercially available agent have the concentrations shown in Table 2 below. The thus obtained comparative test samples to be used for treating a respective cancer/tumor cell line shown in Table 3 were prepared using the same complete medium as that for the respective cancer/tumor cell line. […] The cultivation of each cancer/tumor cell line is described as follows. […] Afterwards, a cell suspension having a cell density of 1.0×10^4 cells/mL was prepared. […] As experimental groups, the tumor/cancer cells of each cell line were treated with the test tea samples prepared from one or more of the tea products and the comparative test samples prepared from one or more of the commercially available agents as obtained in section B of this example (for more detailed information about the tea product(s) and the commercially available product (s) used to treat each cell line, please see Table 4 below). To be specific, 6 to 10 test tea samples prepared from the same tea product and having different concentrations, as well as 6 to 10 comparative test samples prepared from the same commercially available agent and having different concentrations, were utilized to treat the tumor/cancer cells of each cell line. For each experimental group, 6 repetitions of tumor/cancer treatment were performed. For the control group, 100 μL of PBS was added to a well containing the medium and the cancer/tumor cells of the respective cell line. For the blank group, 100 μL of PBS was added to a well containing a complete medium the same as that used for cultivation of the cancer/tumor cells of the respective cell line. After the treatment described above, cultivation was conducted in an incubator (37° C., 100% relative humidity, 5% CO2) for 48 hours. Subsequently, the liquid containing the medium and the sample in the well was removed, and a respective complete medium (shown in Table 3 above) containing 10% CCK-8 (Cell Counting Kit-8)(Dojindo Molecular Technologies, Inc., Cat. No. CK04-13) was added. Cultivation was performed in an incubator (37° C.) for 2 to 4 hours, followed by gently shaking.

[2] = tested on: human cervical cancer cell line Hela; assay: In vitro antitumor/anticancer testing (CCK-8), Hela; conditions: 48 h
Protocol: as §1

[3] = tested on: human lung cancer cell line A549; assay: In vitro antitumor/anticancer testing (CCK-8), A549; conditions: 48 h
Protocol: as §1

[4] = tested on: human glioblastoma cell line U-87MG; assay: In vitro antitumor/anticancer testing (CCK-8), U-87MG; conditions: 48 h
Protocol: as §1

[5] = tested on: human mammary gland/duct cancer cell line BT-474; assay: In vitro antitumor/anticancer testing (CCK-8), BT-474; conditions: Homo sapiens, BT-474, 48 h
Protocol: as §1

[6] = tested on: human prostate cancer cell line PC-3; assay: In vitro antitumor/anticancer testing (CCK-8), PC-3; conditions: Homo sapiens, 48 h
Protocol: Each of Tea Product 1 and Conventional Tea Product obtained in section A of this example was used to prepare test tea samples according to the method described below. A proper amount of the respective tea product was added into sterile water to prepare a stock solution with a concentration of 100 mg/mL, followed by using a membrane filter with a pore size of 0.22 μm to conduct vacuum filtration and sterilization. The resulting stock solution was diluted with a respective complete medium shown in Table 3 below to form test tea samples with different concentrations. In other words, the thus obtained test tea samples to be used for treating a respective cancer/tumor cell line shown in Table 3 were prepared using the same complete medium as that for the respective cancer/tumor cell line.
Specifically, each of the aforesaid commercially available agents was subjected to the method described below to prepare comparative test samples. A proper amount of a respective commercially available agent was dissolved in phosphate-buffered saline (PBS) to prepare a stock solution with a concentration of 5 mg/mL, followed by using a membrane filter with a pore size of 0.22 μm to conduct vacuum filtration and sterilization. The resulting stock solution was diluted with a respective complete medium shown in Table 3 below to form comparative test samples with different concentrations. To be specific, the comparative test samples prepared from the respective commercially available agent have the concentrations shown in Table 2 below. The thus obtained comparative test samples to be used for treating a respective cancer/tumor cell line shown in Table 3 were prepared using the same complete medium as that for the respective cancer/tumor cell line.
The following cancer/tumor cells purchased from Chinese Academy of Sciences, Shanghai Institutes for Biological Sciences, Institute of Biochemistry and Cell Biology were used for in vitro antitumor/anticancer testing: human liver cancer cell line HepG2, human ovarian cancer cell line SK-OV-3, human cervical cancer cell line Hela, human lung cancer cell line A549, human glioblastoma cell line U-87MG, human mammary gland/duct cancer cell line BT-474, human prostate cancer cell line PC-3, human leukemia cell line HL-60, human gastric cancer cell line SMMC-7721, human colon cancer cell line HCT-116, human squamous cell carcinoma cell line A431, human leukemia cell line K562, human pancreatic cancer cell line PANC-1, and human gastric cancer cell line BGC-823.
The cultivation of each cancer/tumor cell line is described as follows. The cancer/tumor cancer cells were cultivated in the respective complete medium supplemented with 100 μg/mL penicillin and 100 μg/mL streptomycin in an incubator (37° C., 100% relative humidity, 5% CO2). When adherent cancer/tumor cells reached 80% confluence during the log-phase, cell detachment was conducted using 0.6 mL of 0.3% trypsin. Afterwards, a cell suspension having a cell density of 1.0×10^4 cells/mL was prepared. 100 μL of the cell suspension (i.e. 1000 cancer/tumor cells) was added into wells of a 96-well plate (Cat. No. 3599, Corning Costar), followed by cultivation in an incubator (37° C., 100% relative humidity, 5% CO2) for 24 hours.
As experimental groups, the tumor/cancer cells of each cell line were treated with the test tea samples prepared from one or more of the tea products and the comparative test samples prepared from one or more of the commercially available agents as obtained in section B of this example (for more detailed information about the tea product(s) and the commercially available product (s) used to treat each cell line, please see Table 4 below). To be specific, 6 to 10 test tea samples prepared from the same tea product and having different concentrations, as well as 6 to 10 comparative test samples prepared from the same commercially available agent and having different concentrations, were utilized to treat the tumor/cancer cells of each cell line. […]

[7] = tested on: human leukemia cell line HL-60; assay: In vitro antitumor/anticancer testing (CCK-8), HL-60; conditions: Homo sapiens, HL-60, 48 h
Protocol: as §1

[8] = 0.125 μg/mL, read-out: Percent growth inhibition
[9] = 0.25 μg/mL, read-out: Percent growth inhibition
[10] = 0.5 μg/mL, read-out: Percent growth inhibition
[11] = 1 μg/mL, read-out: Percent growth inhibition
[12] = 2 μg/mL, read-out: Percent growth inhibition
[13] = 4 μg/mL, read-out: Percent growth inhibition
[14] = 8 μg/mL, read-out: Percent growth inhibition
[15] = 16 μg/mL, read-out: Percent growth inhibition
[16] = 32 μg/mL, read-out: Percent growth inhibition

Compound `N.N.[Cl][Pt][Cl]` [Cisplatin] has a Percent growth inhibition ([1]; 0.0625 μg/mL) of 5.63%, a Percent growth inhibition ([1]; 0.125 μg/mL) of 6.86% and a Percent growth inhibition ([1]; 0.25 μg/mL) of 13.36%. For the same compound, the Percent growth inhibition ([1]; 0.5 μg/mL) was 28.16%, the Percent growth inhibition ([1]; 1 μg/mL) was 51.92% and the Percent growth inhibition ([1]; 2 μg/mL) was 65.87%. For the same compound, the Percent growth inhibition ([1]; 4 μg/mL) was 81.38%, the Percent growth inhibition ([1]; 8 μg/mL) was 88.36% and the Percent growth inhibition ([1]; 16 μg/mL) was 83.65%. The IC50 ([1]; SK-OV-3) was “IC50 (μg/mL) = 1.112”, the Percent growth inhibition ([2]; 0.0625 μg/mL) was −3.05% and the Percent growth inhibition ([2]; 0.125 μg/mL) was −7.31%. For the same compound, the Percent growth inhibition ([2]; 0.25 μg/mL) was −11.93%, the Percent growth inhibition ([2]; 0.5 μg/mL) was −33.69% and the Percent growth inhibition ([2]; 1 μg/mL) was −29.75%. It also gave a Percent growth inhibition ([2]; 2 μg/mL) of 16.62%, a Percent growth inhibition ([2]; 4 μg/mL) of 90.1% and a Percent growth inhibition ([2]; 8 μg/mL) of 98.3%. The Percent growth inhibition ([2]; 16 μg/mL) was 98.98%, the IC50 ([2]; Hela) was “IC50 (μg/mL) = 2.656” and the Percent growth inhibition ([3]; 0.125 μg/mL) was 6.73%. The Percent growth inhibition ([3]; 0.25 μg/mL) was 8.55%, the Percent growth inhibition ([3]; 0.5 μg/mL) was 14.21% and the Percent growth inhibition ([3]; 1 μg/mL) was 29.60%. The Percent growth inhibition ([3]; 3 μg/mL) was 88.98%, the Percent growth inhibition ([3]; 4 μg/mL) was 57.57% and the Percent growth inhibition ([3]; 7 μg/mL) was 36.60%. The Percent growth inhibition ([3]; 16 μg/mL) was 97.45%, the IC50 ([3]; A549) was “IC50 (μg/mL) = 2.503” and the Percent growth inhibition ([4]; 0.0625 μg/mL) was 2.27%. The Percent growth inhibition ([4]; 0.125 μg/mL) was 1.91%, the Percent growth inhibition ([4]; 0.25 μg/mL) was 0.10% and the Percent growth inhibition ([4]; 0.5 μg/mL) was 2.72%. For the same compound, the Percent growth inhibition ([4]; 1 μg/mL) was 20.84%, the Percent growth inhibition ([4]; 2 μg/mL) was 43.00% and the Percent growth inhibition ([4]; 4 μg/mL) was 63.60%. The Percent growth inhibition ([4]; 8 μg/mL) was 85.10%, the Percent growth inhibition ([4]; 16 μg/mL) was 76.01% and the IC50 ([4]; U-87MG) was “IC50 (μg/mL) = 2.751”.
Work on `COc1cccc2c1C(=O)c1c(O)c3c(c(O)c1C2=O)C[C@@](O)(C(=O)CO)C[C@@H]3O[C@H]1C[C@H](N)[C@@H](O)[C@H](C)O1` [Epirubicin] yielded an inhibition at 0.015625 µg/mL ([5]; 0.015625 μg/mL, read-out: Percent growth inhibition) of 8.91%, an inhibition at 0.03125 µg/mL ([5]; 0.03125 μg/mL, read-out: Percent growth inhibition) of 1.2% and an inhibition at 0.0625 µg/mL ([5]; 0.0625 μg/mL, read-out: Percent growth inhibition) of 2.5%. It also gave an inhibition at 0.125 µg/mL [5, 8] of 6.31%, an inhibition at 0.25 µg/mL [5, 9] of 17.4% and an inhibition at 0.5 µg/mL [5, 10] of 22.4%. For the same compound, the inhibition at 1 µg/mL [5, 11] was 33.4%, the inhibition at 2 µg/mL [5, 12] was 53.5% and the inhibition at 4 µg/mL [5, 13] was 72.6%. The IC50 ([5]; read-out: IC50) was 1.7 µg/mL (≈ 3.14 µM), the inhibition at 0.125 µg/mL [6, 8] was 32.7% and the inhibition at 0.25 µg/mL [6, 9] was 48%. It also gave an inhibition at 0.5 µg/mL [6, 10] of 55.1%, an inhibition at 1 µg/mL [6, 11] of 66.1% and an inhibition at 2 µg/mL [6, 12] of 74%. The inhibition at 4 µg/mL [6, 13] was 82%, the inhibition at 8 µg/mL [6, 14] was 82.8% and the inhibition at 16 µg/mL [6, 15] was 81.6%. The inhibition at 32 µg/mL [6, 16] was 85.6% and the IC50 ([6]; PC-3, read-out: IC50) was 0.334 µg/mL (≈ 0.614 µM).
`COc1cc([C@@H]2c3cc4c(cc3[C@@H](O[C@@H]3O[C@@H]5CO[C@@H](C)O[C@H]5[C@H](O)[C@H]3O)[C@H]3COC(=O)[C@H]23)OCO4)cc(OC)c1O` [Etoposide] gave an inhibition at 0.125 µg/mL [7, 8] of 62.4%, an inhibition at 0.25 µg/mL [7, 9] of 73.6% and an inhibition at 0.5 µg/mL [7, 10] of 82.9%. It also gave an inhibition at 1 µg/mL [7, 11] of 97.8%, an inhibition at 2 µg/mL [7, 12] of 100% and an inhibition at 4 µg/mL [7, 13] of 100%. For the same compound, the inhibition at 8 µg/mL [7, 14] was 100%, the inhibition at 16 µg/mL [7, 15] was 101% and the inhibition at 32 µg/mL [7, 16] was 100%. For the same compound, the IC50 ([7]; read-out: IC50) was 0.0855 µg/mL (≈ 0.145 µM).
